Measured values as given in patent publication US20180037871A1, “CANCER INITIATING CELL AND USE THEREOF” (priority 2016, published 2018).
Entries after “also recorded” stand apart in the source; their conditions may differ. Read-outs that look alike come from different tables or passages of the source. Blank lines part the entries; values can stand above or below the compound they belong to.

How the values were obtained:
[1] = system: CAR+/mPSCs^Oct-4_hi C1 clone; test: Cell viability assay (WST-1), C1 clone; type: cell-based, mouse; conditions: 48 h, mean ± SD
Description: (§1) Cells were seeded at 3×10^3 cells per well in 96-well plates and incubated for 18 h. Cells were treated with cisplatin (Sigma-Aldrich) or paclitaxel (Sigma-Aldrich) at various concentrations. After 48 h, WST-1 assay (Roche) was performed to determine cell viability according to the manufacturer's instructions. Cell viability was expressed as a percentage of the non-treated group, and the IC50 values were determined.

[2] = system: CAR+/mPSCs^Oct-4_hi E9 clone; test: Cell viability assay (WST-1), E9 clone; type: cell-based, mouse; conditions: 48 h, mean ± SD
Description: as §1

[3] = system: CAR+/mPSCs^Oct-4_hi C7 clone; test: Cell viability assay (WST-1), C7 clone; type: cell-based, mouse; conditions: 48 h, mean ± SD
Description: as §1

[4] = system: A549 cells; test: Cell viability assay (WST-1), A549 cells; type: cell-based, human; conditions: 48 h, mean ± SD
Description: as §1

[5] = system: CAR+/mPSCs^Oct-4_hi C1, E9, and C7 clones; test: Cell viability assay (WST-1), C1, E9 and C7 clones together; type: cell-based, mouse; conditions: for IC50: range over C1, E9, and C7 clones, 48 h
Description: as §1

[6] = system: blood vessel formation induced by C1 clone; test: Chick chorioallantoic membrane (CAM) assay of C1 clone; type: in vivo, chicken; conditions: 2 μM Tie2 kinase inhibitor, C1 clone 1×10^6 cells on CAM
Description: Fertilized chicken eggs were incubated at 37° C. in an atmosphere of 80% humidity. At day 8 of the development, 1×10^6 cells were loaded onto a membrane and implanted on the top of the growing CAM. At day 11, CAM was fixed with 4% paraformaldehyde, and photographed using a stereomicroscope and digital camera. Branching points were quantified using NIH Image J software with the angiogenesis plugin.
At day 11, CAM was fixed with 4% paraformaldehyde, and photographed using a stereomicroscope and a digital camera. Branching points were quantified using NIH Image J software with the angiogenesis plugin.

[7] = system: C1 clone tumor; test: Xenograft tumor assay of C1 clone; type: in vivo; conditions: 50 mg/kg BW ip once every two days, 1×10^5 C1 cells sc, SCID mice, volume recorded day 10 to 25
Excerpt: All animal experiments were reviewed and approved by the Institutional Animal Care and Use Committee of National Taiwan University College of Medicine. For teratoma formation assay, 1×10^6 cells of CAR^+/mPSCs^Oct-4^_^hi C1, E9, and C7 clones were subcutaneously injected into 8-week-old male severe combined immunodeficiency (SCID) mice. For limiting dilution transplantation experiment, the C1 clone (10^5, 10^4, 10^3 and 10^2 cells) or CAR^+/mPSCs (10^6 cells) were subcutaneously injected into SCID mice. For C1-GFP clone and A549 cells derived tumor experiments. C1-GFP clone (1×10^5 cells) or A549 (1×10^6 cells) were subcutaneously injected into SCID mice. Tumor dimensions were measured using calipers once every 3 d, and volumes (cm^3) were calculated according to the standard formula: length×width^2/2. At the end of the experiment, the tumors were surgically excised and photographed. In metastasis assay, 3×10^5 cells of C1 clone, and CAR^+/mPSCs were injected into the lateral tail vein of SCID mice. Lung metastatic nodules were evaluated at week 5 by necropsy and histological examination. […]
1×10^5 cells of CAR^+/mPSCs^Oct-4^_^hi C1 clone were subcutaneously injected into 8-week-old male severe combined immunodeficiency (SCID) mice. […] Tumor dimensions were measured using calipers once every 2 or 3 d, and volumes (cm^3) were calculated according to the standard formula: length×width^2/2. […]

[8] = IC50 in C1, E9, C7 clones versus A549 cells
[9] = Mus musculus, read-out: IC50 of paclitaxel

Compound: N.N.[Cl][Pt][Cl] [Cisplatin, cisplatin]
IC50 ([1]; read-out: IC50 of cisplatin): 34.7 ± 1.4 µM
IC50 ([2]; read-out: IC50 of cisplatin): 26.4 ± 2.3 µM
IC50 ([3]; read-out: IC50 of cisplatin): 32.7 ± 1.6 µM
IC50 ([4]; read-out: IC50 of cisplatin): 13.5 ± 2.2 µM
resistance to cisplatin compared to the A549 cells [5, 8]: 2-3 fold
IC50 ([5]; read-out: IC50 of cisplatin): 26.4 to 34.7 µM

IC50 ([4]; Homo sapiens, read-out: IC50 of paclitaxel): 0.0082 ± 0.0035 µM
IC50 of paclitaxel higher than that of the A549 cells [5, 8]: approximately 6 fold
Compound: CC(=O)O[C@H]1C(=O)[C@@]2(C)[C@H]([C@H](OC(=O)c3ccccc3)[C@]3(O)C[C@H](OC(=O)[C@H](O)[C@@H](NC(=O)c4ccccc4)c4ccccc4)C(C)=C1C3(C)C)[C@]1(OC(C)=O)CO[C@@H]1C[C@@H]2O [Paclitaxel, paclitaxel]
IC50 [1, 9]: 0.0472 ± 0.002 µM
IC50 [2, 9]: 0.0432 ± 0.0036 µM
IC50 [3, 9]: 0.045 ± 0.0025 µM
IC50 [5, 9]: 0.0432 to 0.0472 µM

Compound: COc1ccc2cc(-c3nc(-c4ccc([S+](C)[O-])cc4)[nH]c3-c3ccncc3)ccc2c1 (stereo not drawn) [Tie2 kinase inhibitor]
blood vessel formation (branch point number) [6]: inhibited the blood vessel formation; also recorded: decreases the blood vessel formation induced by C1 clone
tumor volume / tumor growth [7]: the tumor growth of C1 clone is inhibited
tumor volume / tumor growth ([7]; listed as Tie2 inhibitor): significantly reduced the tumor volume
